In US20230157952A1, “METHOD FOR IMPROVING THE STABILITY OF A PHARMACEUTICAL COMPOSITION COMPRISING A HIGH PENETRATION DRUG, AND THE PHARMACEUTICAL COMPOSITION OBTAINED THEREFROM” (Techfields Inc., priority 2020, published 2023):
Blank lines part the entries; values can stand above or below the molecule they belong to.

Key:
[1] = Effect of temperature (and pH) on the stability of the solution (purity); assay type: physicochemical; settings: 7% solution in water
[2] = Effect of concentration on the stability of the solution (purity over time); settings: in water at 25° C.

- Stability of the solution at a temperature higher than 40° C. and a pH lower than 3 or greater than 6 [1]: not stable
- Purity at Day 3 ([2]; 0.01 wt %): 84.7%
- Purity at Day 7 ([2]; 0.01 wt %): 73.9%
- Purity at Day 14 ([2]; 0.01 wt %): 62.3%
- Purity at Day 21 ([2]; 0.01 wt %): 52.9%
- Purity at Day 28 ([2]; 0.01 wt %): 42.9%
- Purity at hr 0 ([2]; 0.01 wt %): 97.8%
- Purity at Day 3 ([2]; 0.1 wt %): 96.7%
- Purity at Day 7 ([2]; 0.1 wt %): 95.5%
- Purity at Day 14 ([2]; 0.1 wt %): 91.1%
- Purity at Day 21 ([2]; 0.1 wt %): 87.2%
- Purity at Day 28 ([2]; 0.1 wt %): 83.0%
- Purity at hr 0 ([2]; 0.1 wt %): 97.9%
- Purity at Day 3 ([2]; 1 wt %): 97.0%
- Purity at Day 7 ([2]; 1 wt %): 96.0%
- Purity at Day 14 ([2]; 1 wt %): 94.0%
- Purity at Day 21 ([2]; 1 wt %): 92.3%
- Purity at Day 28 ([2]; 1 wt %): 89.9%
- Purity at hr 0 ([2]; 1 wt %): 98.1%
- Purity at Day 3 ([2]; 3 wt %): 97.5%
- Purity at Day 7 ([2]; 3 wt %): 97.0%
- Purity at Day 14 ([2]; 3 wt %): 95.7%
- Purity at Day 21 ([2]; 3 wt %): 94.3%
- Purity at Day 28 ([2]; 3 wt %): 92.8%
- Purity at hr 0 ([2]; 3 wt %): 98.3%
- Purity at Day 3 ([2]; 5 wt %): 98.0%
- Purity at Day 7 ([2]; 5 wt %): 97.9%
- Purity at Day 14 ([2]; 5 wt %): 97.6%
- Purity at Day 21 ([2]; 5 wt %): 97.0%
- Purity at Day 28 ([2]; 5 wt %): 96.3%
- Purity at hr 0 ([2]; 5 wt %): 98.5%
- Purity at Day 3 ([2]; 7 wt %): 98.4%
- Purity at Day 7 ([2]; 7 wt %): 98.2%
- Purity at Day 14 ([2]; 7 wt %): 98.0%
- Purity at Day 21 ([2]; 7 wt %): 97.8%
- Purity at Day 28 ([2]; 7 wt %): 97.4%
- Purity at hr 0 ([2]; 7 wt %): 98.6%
- Purity at Day 3 ([2]; 8 wt %): 98.5%
- Purity at Day 7 ([2]; 8 wt %): 98.3%
- Purity at Day 14 ([2]; 8 wt %): 98.1%
- Purity at Day 21 ([2]; 8 wt %): 97.8%
- Purity at Day 28 ([2]; 8 wt %): 97.4%
- Purity at hr 0 ([2]; 8 wt %): 98.6%
- Purity at Day 3 ([2]; 10 wt %): 98.4%
- Purity at Day 7 ([2]; 10 wt %): 98.3%
- Purity at Day 14 ([2]; 10 wt %): 98.2%
- Purity at Day 21 ([2]; 10 wt %): 97.7%
- Purity at Day 28 ([2]; 10 wt %): 97.3%
- Purity at hr 0 ([2]; 10 wt %): 98.5%
- Purity at Day 3 ([2]; 15 wt %): 98.5%
- Purity at Day 7 ([2]; 15 wt %): 98.3%
- Purity at Day 14 ([2]; 15 wt %): 98.1%
- Purity at Day 21 ([2]; 15 wt %): 97.7%
- Purity at Day 28 ([2]; 15 wt %): 97.5%
- Purity at hr 0 ([2]; 15 wt %): 98.6%
- Purity at Day 3 ([2]; 20 wt %): 98.4%
- Purity at Day 7 ([2]; 20 wt %): 98.3%
- Purity at Day 14 ([2]; 20 wt %): 98.2%
- Purity at Day 21 ([2]; 20 wt %): 97.8%
- Purity at Day 28 ([2]; 20 wt %): 97.4%
- Purity at hr 0 ([2]; 20 wt %): 98.5%
- Purity at Day 3 ([2]; 30 wt %): 98.5%
- Purity at Day 7 ([2]; 30 wt %): 98.3%
- Purity at Day 14 ([2]; 30 wt %): 98.0%
- Purity at Day 21 ([2]; 30 wt %): 97.7%
- Purity at Day 28 ([2]; 30 wt %): 97.3%
- Purity at hr 0 ([2]; 30 wt %): 98.6%
- Purity at Day 3 ([2]; 50 wt %): 98.5%
- Purity at Day 7 ([2]; 50 wt %): 98.3%
- Purity at Day 14 ([2]; 50 wt %): 98.0%
- Purity at Day 21 ([2]; 50 wt %): 97.9%
- Purity at Day 28 ([2]; 50 wt %): 97.5%
- Purity at hr 0 ([2]; 50 wt %): 98.5%
- Stability when the concentration is 0.1% or lower [2]: not stable
Compound: CCN(CC)CCOC(=O)C(C)c1ccc2oc(-c3ccc(Cl)cc3)nc2c1.Cl (stereo not shown) [2-(diethylamino)ethyl 2-[(4-chlorophenyl)-5-benzoxazole]propionate•HCl]

- Stability of the solution at a temperature higher than 40° C. and a pH lower than 3 or greater than 6 [1]: not stable
- Purity at Day 3 ([2]; 0.01 wt %): 84.7%
- Purity at Day 7 ([2]; 0.01 wt %): 73.9%
- Purity at Day 14 ([2]; 0.01 wt %): 62.3%
- Purity at Day 21 ([2]; 0.01 wt %): 53.9%
- Purity at Day 28 ([2]; 0.01 wt %): 45.9%
- Purity at hr 0 ([2]; 0.01 wt %): 97.7%
- Purity at Day 3 ([2]; 0.1 wt %): 96.7%
- Purity at Day 7 ([2]; 0.1 wt %): 95.5%
- Purity at Day 14 ([2]; 0.1 wt %): 91.1%
- Purity at Day 21 ([2]; 0.1 wt %): 87.2%
- Purity at Day 28 ([2]; 0.1 wt %): 83.8%
- Purity at hr 0 ([2]; 0.1 wt %): 97.9%
- Purity at Day 3 ([2]; 1 wt %): 97.0%
- Purity at Day 7 ([2]; 1 wt %): 96.0%
- Purity at Day 14 ([2]; 1 wt %): 94.0%
- Purity at Day 21 ([2]; 1 wt %): 92.3%
- Purity at Day 28 ([2]; 1 wt %): 90.9%
- Purity at hr 0 ([2]; 1 wt %): 98.1%
- Purity at Day 3 ([2]; 3 wt %): 97.7%
- Purity at Day 7 ([2]; 3 wt %): 97.0%
- Purity at Day 14 ([2]; 3 wt %): 96.0%
- Purity at Day 21 ([2]; 3 wt %): 94.8%
- Purity at Day 28 ([2]; 3 wt %): 93.8%
- Purity at hr 0 ([2]; 3 wt %): 98.3%
- Purity at Day 3 ([2]; 5 wt %): 98.2%
- Purity at Day 7 ([2]; 5 wt %): 98.0%
- Purity at Day 14 ([2]; 5 wt %): 97.6%
- Purity at Day 21 ([2]; 5 wt %): 97.0%
- Purity at Day 28 ([2]; 5 wt %): 96.3%
- Purity at hr 0 ([2]; 5 wt %): 98.4%
- Purity at Day 3 ([2]; 7 wt %): 98.4%
- Purity at Day 7 ([2]; 7 wt %): 98.2%
- Purity at Day 14 ([2]; 7 wt %): 98.0%
- Purity at Day 21 ([2]; 7 wt %): 97.8%
- Purity at Day 28 ([2]; 7 wt %): 97.4%
- Purity at hr 0 ([2]; 7 wt %): 98.5%
- Purity at Day 3 ([2]; 8 wt %): 98.4%
- Purity at Day 7 ([2]; 8 wt %): 98.3%
- Purity at Day 14 ([2]; 8 wt %): 98.0%
- Purity at Day 21 ([2]; 8 wt %): 97.9%
- Purity at Day 28 ([2]; 8 wt %): 97.5%
- Purity at hr 0 ([2]; 8 wt %): 98.4%
- Purity at Day 3 ([2]; 10 wt %): 98.4%
- Purity at Day 7 ([2]; 10 wt %): 98.3%
- Purity at Day 14 ([2]; 10 wt %): 98.2%
- Purity at Day 21 ([2]; 10 wt %): 98.0%
- Purity at Day 28 ([2]; 10 wt %): 97.5%
- Purity at hr 0 ([2]; 10 wt %): 98.5%
- Purity at Day 3 ([2]; 15 wt %): 98.4%
- Purity at Day 7 ([2]; 15 wt %): 98.2%
- Purity at Day 14 ([2]; 15 wt %): 98.1%
- Purity at Day 21 ([2]; 15 wt %): 98.0%
- Purity at Day 28 ([2]; 15 wt %): 97.6%
- Purity at hr 0 ([2]; 15 wt %): 98.5%
- Purity at Day 3 ([2]; 20 wt %): 98.4%
- Purity at Day 7 ([2]; 20 wt %): 98.2%
- Purity at Day 14 ([2]; 20 wt %): 98.2%
- Purity at Day 21 ([2]; 20 wt %): 98.1%
- Purity at Day 28 ([2]; 20 wt %): 97.5%
- Purity at hr 0 ([2]; 20 wt %): 98.4%
- Purity at Day 3 ([2]; 30 wt %): 98.4%
- Purity at Day 7 ([2]; 30 wt %): 98.3%
- Purity at Day 14 ([2]; 30 wt %): 98.1%
- Purity at Day 21 ([2]; 30 wt %): 98.1%
- Purity at Day 28 ([2]; 30 wt %): 97.5%
- Purity at hr 0 ([2]; 30 wt %): 98.5%
- Purity at Day 3 ([2]; 50 wt %): 98.5%
- Purity at Day 7 ([2]; 50 wt %): 98.3%
- Purity at Day 14 ([2]; 50 wt %): 98.1%
- Purity at Day 21 ([2]; 50 wt %): 97.8%
- Purity at Day 28 ([2]; 50 wt %): 97.6%
- Purity at hr 0 ([2]; 50 wt %): 98.5%
- Stability when the concentration is 0.1% or lower [2]: not stable
Compound: CCN(CC)CCOC(=O)CCc1ccc2cc(OC)ccc2c1.Cl [2-(diethylamino)ethyl 3-(6-methoxy-2-naphthyl)propionate•HCl]
